Legend:
[1] = system: HT-29 human colon cancer tumors; assay: HT-29 tumors growing in nude mice; format: in vivo; settings: 100 ng/mouse intraperitoneally 3 days a week, vs diluant control
Method: HT-29 cells were bilaterally injected subcutaneously into nude mice, forming two tumors per mouse. The mice were divided randomly into control and experimental groups. […] In FIG. 5A, tumor volumes were measured every week. The mean volume±SD of 10 tumors in each group is shown. […] In FIG. 5B, After 4 weeks of therapy, tumors were removed from each group and weighed. […] For the mouse studies, BNX nu/nu nude mice at 8 weeks of age were purchased from Harlan Sprangue Dawley, Inc. (Indianapolis, Ind.) and their care was in accord with the guidelines of Cedars-Sinai Research Institute. They were maintained in pathogen-free conditions with irradiated chow. […] The mice were blindly randomized to the experimental and control groups. Treatment was started on the day after the injection of […] cells and continued for 6 weeks. […] Tumor sizes were measured every week and calculated by the formula: A (length)×B (width)×C (height)×0.5236. […] All mice were euthanized at the end of the study, and the tumors were fixed in 10% neutral buffered formalin and embedded in paraffin for histological analysis. The data were analyzed by Student's t test.

[2] = system: 24-hydroxylase mRNA; assay: RT-PCR of 24-hydroxylase mRNA in HL-60 cells; format: cell-based, human; settings: paricalcitol 0.01 μM, arsenic trioxide 0.8 μM, after 24 hrs
Method: HL-60 and NB-4 myeloid leukemia cell lines were treated with paricalcitol (0.01 μM for HL-60, 0.1 μM for NB-4) and/or arsenic trioxide (0.8 μM for HL-60, 0.6 μM for NB-4). Control cells were treated with vehicle alone. […] Cell lysates were also made and used for Western blot which was probed with antibodies to C/EBPβ. (B) Cell lysate of HL-60 cells were made after 3 days and used for Western blot which was probed sequentially with antibodies to Bcl-2, BclXL and Bax (C) Cell lysates of HL-60 cells were made after 1, 2 or 3 days and used for Western blot which was probed sequentially with antibodies to phosphorylated ERK. (D) After pretreatment either with or without […] of PD98059 for 1 hour, HL-60 cells were treated with paricalcitol (0.01 μM) and/or arsenic trioxide (0.8 μM) for 2 days. Control cells were treated with vehicle alone. CD14 expression was measured by flow cytometry.
In FIG. 6B, HT-29 colon cancer cells were treated with paricalcitol (10^−7M) for 0, 6, 12 or 24 hrs and RNA was harvested. Expression of 24 hydroxylase mRNA was analysed by RT-PCR. The amounts of mRNA were normalized by comparison to 18S RNA. In FIG. 6C, mononuclear cells extracted from spleens of either wild type or VDR knock-out mice were treated with paricalcitol (10^−8M) for either 12 or 24 hrs, and RNA was harvested. Expression of 24 hydroxylase mRNA was analysed by RT-PCR. […]

[3] = system: HL-60 cells; assay: Cell cycle analysis by flow cytometry; format: cell-based, human; settings: 10^−7M, 72 hr
Method: For cell cycle analysis, cells were exposed to 10^−7M 1,25(OH)2D3, 10^−7M paricalcitol or vehicle control for either 3 or 4 days. Total cells, both in suspension and adherent, were collected, washed, suspended in cold PBS. Then cells were fixed in 75% chilled methanol and stained with propidium iodine. Cell cycle status was analyzed on a Becton Dickinson Flow Cytometer.
Cell cycle analysis was performed as follows: after treatment of 5×10^4 of cells with a selected compound, cells were collected, washed and suspended in cold PBS. Cells were fixed in chilled 75% methanol and stained with propidium iodine. Cell cycle status was analyzed on a Becton Dickinson Flow Cytometer used standart protocols.

[4] = humans, cited from earlier work
[5] = system: NCI-H929 cells; assay: Soft agar colony assay (clonal proliferation); format: cell-based; settings: Homo sapiens, 336 h, colonies counted after 14 days, read-out: concentration that caused 50% inhibition (ED50) of clonal growth
Method: (§1) A soft agar colony assay was used to test the effect of paricalcitol and 1,25(OH)2D3 on various cancer cell lines. For the soft agar colony assay, trypsinized and washed single-cell suspensions of cells were enumerated and plated into 24 well flat bottom plates using a two-layer soft agar system with a total of 1×10^3 cells/well in a volume of […], as described previously (Kubota et al., supra, 1998).
(§2) Cell lines used in this study were obtained from American Type Culture Collection (Rockville, Md.) and were maintained according to their recommendations. Myeloid leukemia cell lines (HL-60, NB-4, THP-1, U937), lymphoma cell lines (Raji, Ramos, Daudi, Jurkat, Jeko-1, JUDHL) and myeloma cell lines (RPMI-8226, ARH-77, NCI-H929) were grown in RPMI 1640 with 10% FCS. Breast cancer cell lines (MCF-7, MDA-MB-231), brain cancer cell lines (U343, U118, U138, U373, U87), and colon cancer cell lines (HT-29, SW837, SW480, SW620, HCT116) were maintained in DMEM with 10% FCS. Endometrial carcinoma cell line, AN-3 was maintained in Alpha Minimum Essential Medium (a-MEM) with 10% FCS.

[6] = system: SW837; assay: Soft agar colony assay (clonal proliferation); format: cell-based; settings: Homo sapiens, 336 h, colonies counted after 14 days, read-out: concentration that caused 50% inhibition (ED50) of clonal growth
Method: as §1, §2

[7] = system: HT-29 cells; assay: Soft agar colony assay (clonal proliferation); format: cell-based; settings: Homo sapiens, 336 h, colonies counted after 14 days, read-out: concentration that caused 50% inhibition (ED50) of clonal growth
Method: as §1, §2

[8] = system: HL-60 cells; assay: Soft agar colony assay (clonal proliferation); format: cell-based; settings: Homo sapiens, 336 h, colonies counted after 14 days, read-out: concentration that caused 50% inhibition (ED50) of clonal growth
Method: as §1, §2

[9] = system: NB-4 cells; assay: Soft agar colony assay (clonal proliferation); format: cell-based; settings: Homo sapiens, 336 h, colonies counted after 14 days, read-out: concentration that caused 50% inhibition (ED50) of clonal growth
Method: as §1, §2

[10] = system: THP-1; assay: Soft agar colony assay (clonal proliferation); format: cell-based; settings: Homo sapiens, 336 h, colonies counted after 14 days, read-out: concentration that caused 50% inhibition (ED50) of clonal growth
Method: as §1, §2

SMILES: C[C@H](/C=C/[C@H](C)C(C)(C)O)[C@H]1CC[C@H]2/C(=C/C=C3C[C@@H](O)C[C@H](O)C3)CCC[C@]12C [paricalcitol, 19-nor-1,25, (OH)2D3]
- mean tumor weights ([1]; after 4 weeks, p=0.0004): significantly suppressed
- growth of colon cancer tumors (tumor volumes) ([1]; p=0.03): significantly suppressed
- mRNA levels of 24-hydroxylase [2]: increased
- decrease of cells in S phase [3]: 33%
- increase of cells in G0/G1 phase [3]: 16%
- increase of cells in G2/M phase [3]: 17%
- peak serum levels [4]: 1850 pg/mL
- serum half-life ([4]; paricalcitol compared with 1,25(OH)2D3): similar
- EC50 [5]: 0.02 nM
- EC50 [6]: 46 nM
- EC50 [7]: 17 nM
- EC50 [8]: 2.4 nM
- EC50 [9]: 3.4 nM
- EC50 [10]: 5.8 nM

— patent US20050054620A1, “Paricalcitol as a chemotherapeutic agent” (priority 2003, published 2005)
